In one assay the target is T1, Ephrin type-B receptor 4 (Homo sapiens, UniProt P54760).
T1 sequence (P54760 whole entry): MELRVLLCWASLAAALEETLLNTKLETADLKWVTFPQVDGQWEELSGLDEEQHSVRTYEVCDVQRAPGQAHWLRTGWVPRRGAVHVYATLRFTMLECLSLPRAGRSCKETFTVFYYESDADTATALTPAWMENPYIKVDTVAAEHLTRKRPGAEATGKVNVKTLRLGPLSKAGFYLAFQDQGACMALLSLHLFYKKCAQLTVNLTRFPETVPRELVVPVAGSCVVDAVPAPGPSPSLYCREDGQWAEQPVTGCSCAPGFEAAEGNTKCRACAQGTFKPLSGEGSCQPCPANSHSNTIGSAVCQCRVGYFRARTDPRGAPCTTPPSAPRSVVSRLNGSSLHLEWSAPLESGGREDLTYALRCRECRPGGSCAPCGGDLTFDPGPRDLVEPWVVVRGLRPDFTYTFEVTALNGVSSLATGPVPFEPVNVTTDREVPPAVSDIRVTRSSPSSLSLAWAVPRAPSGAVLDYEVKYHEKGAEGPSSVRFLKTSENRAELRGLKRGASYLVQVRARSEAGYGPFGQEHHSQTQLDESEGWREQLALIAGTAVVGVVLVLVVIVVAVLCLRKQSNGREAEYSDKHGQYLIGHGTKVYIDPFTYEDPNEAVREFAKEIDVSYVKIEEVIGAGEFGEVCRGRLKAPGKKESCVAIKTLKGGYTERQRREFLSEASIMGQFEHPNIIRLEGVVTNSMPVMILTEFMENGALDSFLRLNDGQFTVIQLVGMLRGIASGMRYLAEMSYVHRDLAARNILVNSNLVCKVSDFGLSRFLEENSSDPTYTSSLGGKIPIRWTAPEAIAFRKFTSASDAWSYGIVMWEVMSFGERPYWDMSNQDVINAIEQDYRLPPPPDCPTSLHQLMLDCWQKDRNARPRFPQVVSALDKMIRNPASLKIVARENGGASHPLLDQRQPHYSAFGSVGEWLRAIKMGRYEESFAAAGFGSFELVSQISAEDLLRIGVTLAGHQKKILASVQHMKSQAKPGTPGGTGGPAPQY
In words: blockers of EphB4 ligand binding – biochemical, TNYL-RAW peptide displacement, dose response (AID 835).
Conditions: not given
One may read the IC50 as the point on the concentration scale where inhibition reaches its midpoint. Read a low IC50 as higher potency. Take `CC(C)(C)C1CCC2(CC1)SCC(=O)N2c1ccccc1` (centres undefined): the IC50 is more than 79.4 µM.

`CN(c1ccccc1C(=O)Nc1ccccc1C(=O)NCc1ccco1)S(C)(=O)=O` [MLS000049900] displayed an IC50 of more than 79.4 µM.

On to `Cc1ccc(N2C(=O)C(O)(C(F)(F)F)C3=C2CC(C)(C)CC3=O)cc1C` (centres undefined) [1-(3,4-dimethylphenyl)-3-hydroxy-6,6-dimethyl-3-(trifluoromethyl)-3,5,6,7-tetrahydro-1H-indole-2,4-dione], for which the half-inhibitory concentration (IC50) is more than 79.4 µM.

The compound `CCCCNC(=O)C1C2C=CC3(CN(Cc4ccccc4Cl)C(=O)C13)O2` (centres undefined) [MLS000044497] yielded a half-inhibitory concentration (IC50) of more than 79.4 µM.

`COc1ccccc1C1CC(c2c(O)nc3ccc(Cl)cc3c2-c2ccccc2)=NN1S(C)(=O)=O` (centres undefined) [(3Z)-6-chloranyl-3-[5-(2-methoxyphenyl)-1-methylsulfonyl-pyrazolidin-3-ylidene]-4-phenyl-quinolin-2-one]: the concentration for half-maximal inhibition (IC50) was more than 79.4 µM.

Consider `COC(=O)CSC1=NC2=C(C(=O)CCC2)C(c2ccc(C)cc2)C1C#N` (centres undefined) [methyl 2-[[3-cyano-4-(4-methylphenyl)-5-oxo-4,6,7,8-tetrahydro-1H-quinolin-2-yl]sulfanyl]acetate], for which the IC50 is more than 79.4 µM.

On to `Cn1cc(Cl)c(C(=O)OCC(=O)Nc2ccccc2)n1` [(2-anilino-2-oxoethyl) 4-chloro-1-methylpyrazole-3-carboxylate], for which the half-maximal inhibitory concentration (IC50) was more than 79.4 µM.

Compound `O=C1CN(C(=O)CN2CCCCC2)C(c2ccccc2)c2cc(Br)ccc2N1` (centres undefined) [7-bromanyl-5-phenyl-4-(2-piperidin-1-ylethanoyl)-3,5-dihydro-1H-1,4-benzodiazepin-2-one] showed a half-inhibitory concentration (IC50) of more than 79.4 µM.

Take `O=C1Nc2ccccc2/C1=N/Nc1nc2ccccc2s1` [SMR000123161]: the IC50 was more than 79.4 µM.

`O=C(NC(Cc1ccccc1)c1nc2ccccc2[nH]1)C1CC(=O)N(c2ccc3c(c2)OCCO3)C1` (centres undefined) [MLS000053466] returned a half-inhibitory concentration (IC50) of more than 79.4 µM.

With `O=C(NNC(=O)C1CCCCC1)C(=O)NC1CCCCC1` [2-[2-(cyclohexanecarbonyl)hydrazinyl]-N-cyclohexyl-2-oxoacetamide], the IC50 was more than 79.4 µM.

As for `O=C(N/N=C/c1ccncc1)c1cc([N+](=O)[O-])cc([N+](=O)[O-])c1O` [MLS000541056], the IC50 is more than 79.4 µM.

In the case of `CCOc1ccc(C(CCc2ccccc2)NC(=O)c2ccccc2F)cc1OCC` (centres undefined) [MLS000544814], the IC50 is more than 79.4 µM.

`Cc1cc(OC(=O)c2ccco2)c2c3c(c(=O)oc2c1)CCCC3` [(3-methyl-6-oxidanylidene-7,8,9,10-tetrahydrobenzo[c]chromen-1-yl) furan-2-carboxylate]: the IC50 is more than 79.4 µM.

As to `O=[N+]([O-])/C=C/c1cn(Cc2ccc(F)cc2)c2ccccc12` [MLS000577100], the half-inhibitory concentration (IC50) was more than 79.4 µM.

With `COc1ccc(C(=O)NN=C2SCC(=O)N2Cc2ccc3c(c2)OCO3)cc1OC` [3,4-Dimethoxy-benzoic acid (3-benzo[1,3]dioxol-5-ylmethyl-4-oxo-thiazolidin-2-ylidene)-hydrazide], the IC50 was more than 79.4 µM.

Compound `CC(C)CC(=O)NC(=S)NCCc1ccccc1` [3-methyl-N-(2-phenylethylcarbamothioyl)butanamide] came in with a 50% inhibitory concentration (IC50) of more than 79.4 µM.

In turn, `CCCc1[nH]nc2c1C(c1ccc(OC)c(Cn3nnc4ccccc43)c1)C(C#N)C(=N)O2` (centres undefined) displayed an IC50 of more than 79.4 µM.

As to `CC(c1ccccc1)C1CC(=O)N(C2CCCCC2)C1=O` (centres undefined) [1-cyclohexyl-3-(1-phenylethyl)-2,5-pyrrolidinedione], the IC50 is more than 79.4 µM.

`Cn1cc(S(=O)(=O)N2CCN(c3ccccc3)CC2)c(=O)n(C)c1=O` [1,3-dimethyl-5-(4-phenylpiperazin-1-yl)sulfonyl-pyrimidine-2,4-dione] came in with a half-inhibitory concentration (IC50) of more than 79.4 µM.

As to `O=C(CCC1N=C2c3ccccc3N=C(SCc3ccc(F)cc3)N2C1=O)NCc1ccco1` (centres undefined) [3-{5-[(4-fluorobenzyl)thio]-3-oxo-2,3-dihydroimidazo[1,2-c]quinazolin-2-yl}-N-(2-furylmethyl)propanamide], the 50% inhibitory concentration (IC50) is more than 79.4 µM.

For the compound `Cc1ccc(-c2nc3cccnc3o2)cc1NC(=O)COc1ccc(C(C)(C)C)cc1` [2-(4-tert-butylphenoxy)-N-(2-methyl-5-[1,3]oxazolo[5,4-b]pyridin-2-ylphenyl)acetamide], the IC50 is more than 79.4 µM.

In turn, `CCOC(=O)C1CCN(S(=O)(=O)Cc2ccccc2)C1=O` (centres undefined) [1-benzylsulfonyl-2-keto-pyrrolidine-3-carboxylic acid ethyl ester] came in with an IC50 of more than 79.4 µM.

The compound `CC1(C)Cc2ccccc2-c2nnc(SCC(=O)Nc3nc4ccccc4s3)n21` [MLS000077330] registered an IC50 of more than 79.4 µM.

Compound `CC(=O)c1ccc(-n2nnnc2SCC(=O)N2CCc3ccccc3C2)cc1` [1-(3,4-dihydro-1H-isoquinolin-2-yl)-2-[[1-(4-ethanoylphenyl)-1,2,3,4-tetrazol-5-yl]sulfanyl]ethanone] yielded an IC50 of more than 79.4 µM.

With `CCCc1nnc(NC(=O)CNc2ccc(F)cc2)s1` [2-(4-fluoroanilino)-N-(5-propyl-1,3,4-thiadiazol-2-yl)acetamide], the IC50 was more than 79.4 µM.

In turn, `O=C(c1cnc2ccc(S(=O)(=O)N3CCC4(CC3)OCCO4)cc2c1O)N1CCOCC1` [6-(1,4-dioxa-8-azaspiro[4.5]dec-8-ylsulfonyl)-3-(morpholin-4-ylcarbonyl)quinolin-4(1H)-one] returned a half-inhibitory concentration (IC50) of more than 79.4 µM.

The compound `O=C(c1ccc(COc2ccccc2Cl)o1)N1CCN(Cc2ccc3c(c2)OCO3)CC1` [1-(1,3-benzodioxol-5-ylmethyl)-4-{5-[(2-chlorophenoxy)methyl]-2-furoyl}piperazine] gave a half-maximal inhibitory concentration (IC50) of more than 79.4 µM.

`O=C1CCCc2c1[nH]c1ccccc21` returned a concentration for half-maximal inhibition (IC50) of more than 79.4 µM.

In turn, `O=c1c2ccccc2nc(-c2ccoc2)n1CCc1ccccc1` [2-(3-furanyl)-3-(2-phenylethyl)-4-quinazolinone] registered an IC50 of more than 79.4 µM.

As for `CC(=O)Nc1cccc(NC(=O)CSc2nnc(Cc3cccn3C)n2-c2ccc(C)cc2)c1` [MLS000092946], the half-inhibitory concentration (IC50) was more than 79.4 µM.

Turning to `Cc1ccc(-n2ncc3c(=O)n(CC(=O)N4CCCCCC4)cnc32)cc1` [5-(2-azepan-1-yl-2-oxoethyl)-1-(4-methylphenyl)-1,5-dihydro-4H-pyrazolo[3,4-d]pyrimidin-4-one], the half-inhibitory concentration (IC50) was more than 79.4 µM.

`O=C(NN=C1C(=O)c2cccc3cccc1c23)c1ccc(Cl)cc1` [4-chloranyl-N-[(2-oxidanylideneacenaphthylen-1-ylidene)amino]benzamide] yielded a concentration for half-maximal inhibition (IC50) of 17.8 µM.

As for `O=C(CSc1nnnn1Cc1ccccc1)Nc1ccc2c(c1)OCO2` [MLS000067975], the concentration for half-maximal inhibition (IC50) was more than 79.4 µM.

Compound `CCCCCCOC(=O)C(C#N)c1nc2ccccc2nc1N1CCN(C)CC1` (centres undefined) [2-cyano-2-[3-(4-methyl-1-piperazinyl)-2-quinoxalinyl]acetic acid hexyl ester] showed a concentration for half-maximal inhibition (IC50) of more than 79.4 µM.

Take `CCOC(=O)c1sc2nc(C)c3c(c2c1N)CC(C)(C)OC3` [1-Amino-5,8,8-trimethyl-8,9-dihydro-6H-7-oxa-3-thia-4-aza-cyclopenta[a]naphthalene-2-carboxylic acid ethyl ester]: the IC50 was more than 79.4 µM.

Compound `CCOC(=O)c1oc2cccc(O)c2c1CN(Cc1ccccc1)C(C)=O` [3-[[acetyl(benzyl)amino]methyl]-4-hydroxy-coumarilic acid ethyl ester] showed an IC50 of more than 79.4 µM.

`CC1CCN(S(=O)(=O)c2cc(Br)cc(C(=O)NC3=NCCS3)c2)CC1` [3-bromanyl-N-(4,5-dihydro-1,3-thiazol-2-yl)-5-(4-methylpiperidin-1-yl)sulfonyl-benzamide] returned a concentration for half-maximal inhibition (IC50) of more than 79.4 µM.

Turning to `CCn1c(CSc2nccn2C)nc2cc(C(=O)O)ccc21` [MLS000058666], the IC50 was more than 79.4 µM.

`CCOC(=O)N1CCC(n2c(SCC(=O)NCc3ccccc3)nc3ccccc3c2=O)CC1` [4-[2-[[2-(benzylamino)-2-keto-ethyl]thio]-4-keto-quinazolin-3-yl]piperidine-1-carboxylic acid ethyl ester] yielded an IC50 of more than 79.4 µM.

The compound `Cc1cc(C(=O)CN2C(=O)NC(c3ccccc3)(c3ccccc3)C2=O)c(C)n1Cc1ccccc1` [3-[2-(1-benzyl-2,5-dimethyl-pyrrol-3-yl)-2-keto-ethyl]-5,5-diphenyl-hydantoin] registered a concentration for half-maximal inhibition (IC50) of more than 79.4 µM.

`COC(=O)c1ccc(COc2ccc3c(C)c(C)c(=O)oc3c2C)o1` [5-[(2-keto-3,4,8-trimethyl-chromen-7-yl)oxymethyl]furan-2-carboxylic acid methyl ester]: the half-inhibitory concentration (IC50) was more than 79.4 µM.

Still in this assay, the particulars now being: inactive by the depositor's call.
The compound `CCNc1c2c3c(cccc3n(C)c1=O)C(=O)c1ccccc1-2` [1-(ethylamino)-3-methyl-3H-naphtho[1,2,3-de]quinoline-2,7-dione] returned an IC50 of 25.7 µM.

`CCn1c(CSc2nnc3ccccn23)nc2cc(C(=O)O)ccc21` [1-ethyl-2-[([1,2,4]triazolo[4,3-a]pyridin-3-ylthio)methyl]-5-benzimidazolecarboxylic acid]: the IC50 worked out at 20.4 µM. The IC50 values of the last two compounds are within 1.5-fold of each other.

For the origin of these results see BindingDB's records for doi:10.7270/Q2KP80J0 (The Scripps Research Institute Molecular Screening Center, 2007).
